Reference: paper PMC3730168, “Thiol Redox Sensitivity of Two Key Enzymes of Heme Biosynthesis and Pentose Phosphate Pathways: Uroporphyrinogen Decarboxylase and Transketolase” (Oxidative Medicine and Cellular Longevity, 2013)

Experiments:
Hem12p = molecular target: T1, Hem12p (Saccharomyces cerevisiae, UniProt P32347); test: fluorescent labelling with eosin-GSH, eosin absorbance at […] nm; type: binding; details: covalent; labelled compound; excess DiEGSSG
T1 construct: gene HEM12; recombinant, codon-optimised synthetic DNA, C-terminal poly-His tag, E. coli, Ni-Sepharose (Abyntek Biopharma)
T1 sequence (P32347 1-362): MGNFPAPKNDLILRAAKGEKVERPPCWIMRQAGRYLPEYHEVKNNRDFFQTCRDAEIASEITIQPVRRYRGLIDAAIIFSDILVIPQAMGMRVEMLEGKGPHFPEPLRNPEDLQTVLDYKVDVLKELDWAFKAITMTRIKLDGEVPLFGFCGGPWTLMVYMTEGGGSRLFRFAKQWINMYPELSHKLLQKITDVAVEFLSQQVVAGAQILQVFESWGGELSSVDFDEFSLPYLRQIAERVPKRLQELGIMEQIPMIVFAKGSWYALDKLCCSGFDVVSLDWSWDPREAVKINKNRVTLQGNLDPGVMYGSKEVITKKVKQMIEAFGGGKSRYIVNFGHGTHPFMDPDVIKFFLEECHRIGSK

Tkl1p = molecular target: T2, Tkl1p (Saccharomyces cerevisiae, UniProt P23254); test: as above; type: binding; details: covalent; labelled compound; excess DiEGSSG
T2 construct: gene TKL1; recombinant, codon-optimised synthetic DNA, C-terminal poly-His tag, E. coli, Ni-Sepharose (Abyntek Biopharma); homodimer
T2 sequence (P23254 1-680): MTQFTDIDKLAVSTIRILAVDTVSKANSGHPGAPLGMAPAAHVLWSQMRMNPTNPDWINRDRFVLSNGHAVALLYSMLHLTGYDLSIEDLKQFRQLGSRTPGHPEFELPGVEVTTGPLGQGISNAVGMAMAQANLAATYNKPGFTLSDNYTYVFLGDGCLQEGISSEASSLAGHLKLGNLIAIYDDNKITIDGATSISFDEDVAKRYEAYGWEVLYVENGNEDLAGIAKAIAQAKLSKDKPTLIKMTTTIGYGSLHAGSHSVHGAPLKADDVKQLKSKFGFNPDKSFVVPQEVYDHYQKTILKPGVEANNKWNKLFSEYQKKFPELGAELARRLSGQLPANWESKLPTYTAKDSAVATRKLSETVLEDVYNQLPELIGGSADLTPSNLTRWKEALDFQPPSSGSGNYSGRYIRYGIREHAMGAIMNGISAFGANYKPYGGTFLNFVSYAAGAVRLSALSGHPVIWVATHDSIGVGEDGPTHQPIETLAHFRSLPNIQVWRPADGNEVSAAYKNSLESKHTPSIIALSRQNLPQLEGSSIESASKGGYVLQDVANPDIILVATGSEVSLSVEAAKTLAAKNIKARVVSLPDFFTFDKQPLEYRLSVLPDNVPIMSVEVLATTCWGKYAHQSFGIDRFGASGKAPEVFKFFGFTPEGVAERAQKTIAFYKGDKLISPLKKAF

For `O=C(O)CNC(=O)[C@H](CSSC[C@H](NC(=O)CC[C@H](NC(=S)Nc1ccc(-c2c3cc(Br)c(=O)c(Br)c-3oc3c(Br)c(O)c(Br)cc23)c(C(=O)O)c1)C(=O)O)C(=O)NCC(=O)O)NC(=O)CC[C@H](NC(=S)Nc1ccc(-c2c3cc(Br)c(=O)c(Br)c-3oc3c(Br)c(O)c(Br)cc23)c(C(=O)O)c1)C(=O)O` [DiEGSSG, dieosinediglutathione], the “moles of fluorescent glutathione per mole protein” value (Hem12p) was ~ 1.5 mol/mol and the “moles of fluorescent moiety per mole protein” value (Tkl1p) was ~ 0.35 mol/mol.
